Assay results: patent publication US20020137929A1, “1 - (3-heterocyclylphenyl) isothiourea, -isourea, -guanidine and -amidine herbicidal agents” (Intellectual Property Department, BASF Aktiengesellschaft, priority 1998, published 2002)

Columns and labels:
[1] = system: CHEAL (Lambsquarters, Common); test: Postemergence herbicidal evaluation; format: in vivo, Chenopodium album; details: postemergence
Outline: (§1)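 Young plants, roughly two weeks from seeding, receive the active ingredient as a sprayed dispersion (acetone/water 50/50, 0.5% TWEEN 20) at 40 psi. Doses span about 0.0156 to 0.500 kg/ha. A visual score from 0 to 9 compares treated with control plants four to five weeks on.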

CYPSE (Flatsedge) = test: Preemergence weed control under flooded paddy conditions; format: in vivo, Cyperus serotinus; details: rated 3-4 weeks after treatment
Outline: (§2)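 Values are visual 0-9 scores against a control for a preemergence application into paddy flood water at about 0.0313 to 0.500 kg/ha. Greenhouse duration was three to four weeks.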

CASOB (Sicklepod) = test: Postemergence herbicidal evaluation; format: in vivo, Cassia obtusifolia; details: postemergence
Outline: as §1

ZEAMX (Corn, Field) = test: Preemergence herbicidal evaluation; format: in vivo, Zea mays; details: rated 4-5 weeks after treatment
Outline: (§3)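 In this greenhouse assay, monocot and dicot seeds are planted in soil and treated prior to emergence with an aqueous acetone spray (about 0.0156-0.500 kg/ha). Plants are assessed visually against control on a 0-9 scale after 4-5 weeks.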

ECHCG (Barnyardgrass) [2] = test: Postemergence herbicidal evaluation; format: in vivo, Echinochloa crus-galli; details: postemergence
Outline: as §1

CYPIR (Rice Flatsedge) = test: Preemergence weed control under flooded paddy conditions; format: in vivo, Cyperus iria; details: rated 3-4 weeks after treatment
Outline: (§4)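 Flooded-pot preemergence screen with silt loam and seeds in the upper 0.5 cm. Dose about 0.0313 to 0.500 kg/ha, delivered into flood water; visual 0-9 score after 3 to 4 weeks.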

SETVI (Foxtail, Green) [3] = test: Postemergence herbicidal evaluation; format: in vivo, Setaria viridis; details: postemergence
Outline: as §1

[4] = system: CHEAL (Lambsquarters, Common); test: Preemergence herbicidal evaluation; format: in vivo, Chenopodium album; details: rated 4-5 weeks after treatment
Outline: as §3

ECHCG (Barnyardgrass) [5] = test: Preemergence herbicidal evaluation; format: in vivo, Echinochloa crus-galli; details: rated 4-5 weeks after treatment
Outline: as §3

SETVI (Foxtail, Green) [6] = test: Preemergence herbicidal evaluation; format: in vivo, Setaria viridis; details: rated 4-5 weeks after treatment
Outline: as §3

GALAP (Galium) = test: Postemergence herbicidal evaluation; format: in vivo, Galium aparine; details: postemergence
Outline: as §1

[7] = system: ECHORC (Watergrass (Calif.)); test: Preemergence weed control under flooded paddy conditions; format: in vivo, Echinochloa oryzoides; details: rated 3-4 weeks after treatment
Outline: as §4

MOOVA (Monochoria) = test: as above; format: in vivo, Monochoria vaginalis; details: rated 3-4 weeks after treatment
Outline: as §2

[8] = system: IPOHE (Morningglory, Ivyleaf); test: Preemergence herbicidal evaluation; format: in vivo, Ipomoea hederacea; details: rated 4-5 weeks after treatment
Outline: as §3

AMBEL (Ragweed, Common) = test: Postemergence herbicidal evaluation; format: in vivo, Ambrosia artemisifolia; details: postemergence
Outline: as §1

ORYSAT (Rice, Tebonnet) = test: Postemergence herbicidal evaluation; format: in vivo, Oryza sativa, (L.) Tebonnet; details: postemergence
Outline: as §1

[9] = system: GLXMAW (Soybean, Williams); test: Postemergence herbicidal evaluation; format: in vivo, Glycine max, (L.) Merr. cv Williams; details: postemergence
Outline: as §1

In the case of `C#CCOC(=O)CN1C(=O)CSC1=Nc1cc(-n2c(=O)cc(C(F)(F)F)n(C)c2=O)c(F)cc1Cl` [Compound 115, 2-Propynyl 2-{{2-chloro-5-[3,6-dihydro-3-methyl-2,6-dioxo-4-(trifluoromethyl)-1(2H)-pyrimidinyl]-4-fluorophenyl}imino}-4-oxo-3-thiazolidineacetate], the “Herbicidal rating CHEAL” value ([1]; rate 0.0158 kg/ha) is reported as 0.0, the “Herbicidal rating CHEAL” value ([1]; rate 0.0315 kg/ha) is reported as 1.0 and the “Herbicidal rating CHEAL” value ([1]; rate 0.0630 kg/ha) is reported as 4.0. For the same molecule, the “CYPSE herbicidal effect rating” value (CYPSE (Flatsedge); 0.0313 kg/ha) was 0.0, the “CYPSE herbicidal effect rating” value (CYPSE (Flatsedge); 0.0625 kg/ha) was 0.0 and the “CYPSE herbicidal effect rating” value (CYPSE (Flatsedge); 0.2500 kg/ha) was 6.0. For the same molecule, the “Herbicidal rating CASOB” value (CASOB (Sicklepod); rate 0.0158 kg/ha) was 0.0, the “Herbicidal rating CASOB” value (CASOB (Sicklepod); rate 0.0315 kg/ha) was 1.0 and the “Herbicidal rating CASOB” value (CASOB (Sicklepod); rate 0.0630 kg/ha) was 1.0. The “Preemergence herbicidal rating ZEAMX” value (ZEAMX (Corn, Field); rate 0.0156 kg/ha) was 0.0, the “Preemergence herbicidal rating ZEAMX” value (ZEAMX (Corn, Field); rate 0.0313 kg/ha) was 0.0 and the “Preemergence herbicidal rating ZEAMX” value (ZEAMX (Corn, Field); rate 0.0625 kg/ha) was 0.0. The “Preemergence herbicidal rating ZEAMX” value (ZEAMX (Corn, Field); rate 0.1250 kg/ha) was 1.0, the “Preemergence herbicidal rating ZEAMX” value (ZEAMX (Corn, Field); rate 0.2500 kg/ha) was 2.0 and the “Herbicidal rating ECHCG” value (ECHCG (Barnyardgrass) [2]; rate 0.0158 kg/ha) was 0.0. The “Herbicidal rating ECHCG” value (ECHCG (Barnyardgrass) [2]; rate 0.0315 kg/ha) was 2.0, the “Herbicidal rating ECHCG” value (ECHCG (Barnyardgrass) [2]; rate 0.0630 kg/ha) was 3.0 and the “CYPIR herbicidal effect rating” value (CYPIR (Rice Flatsedge); 0.0313 kg/ha) was 5.0. For the same molecule, the “CYPIR herbicidal effect rating” value (CYPIR (Rice Flatsedge); 0.0625 kg/ha) was 6.0, the “CYPIR herbicidal effect rating” value (CYPIR (Rice Flatsedge); 0.1250 kg/ha) was 9.0 and the “CYPIR herbicidal effect rating” value (CYPIR (Rice Flatsedge); 0.2500 kg/ha) was 9.0. For the same molecule, the “Herbicidal rating SETVI” value (SETVI (Foxtail, Green) [3]; rate 0.0158 kg/ha) was 0.0, the “Herbicidal rating SETVI” value (SETVI (Foxtail, Green) [3]; rate 0.0315 kg/ha) was 4.0 and the “Herbicidal rating SETVI” value (SETVI (Foxtail, Green) [3]; rate 0.0630 kg/ha) was 9.0. For the same molecule, the “Preemergence herbicidal rating CHEAL” value ([4]; rate 0.0313 kg/ha) was 5.0, the “Preemergence herbicidal rating CHEAL” value ([4]; rate 0.0625 kg/ha) was 7.0 and the “Preemergence herbicidal rating CHEAL” value ([4]; rate 0.1250 kg/ha) was 9.0. The “Preemergence herbicidal rating CHEAL” value ([4]; rate 0.2500 kg/ha) was 9.0, the “Preemergence herbicidal rating ECHCG” value (ECHCG (Barnyardgrass) [5]; rate 0.0156 kg/ha) was 0.0 and the “Preemergence herbicidal rating ECHCG” value (ECHCG (Barnyardgrass) [5]; rate 0.0313 kg/ha) was 0.0. The “Preemergence herbicidal rating ECHCG” value (ECHCG (Barnyardgrass) [5]; rate 0.0625 kg/ha) was 0.0, the “Preemergence herbicidal rating ECHCG” value (ECHCG (Barnyardgrass) [5]; rate 0.1250 kg/ha) was 0.0 and the “Preemergence herbicidal rating ECHCG” value (ECHCG (Barnyardgrass) [5]; rate 0.2500 kg/ha) was 0.0. For the same molecule, the “Preemergence herbicidal rating SETVI” value (SETVI (Foxtail, Green) [6]; rate 0.0156 kg/ha) was 1.0, the “Preemergence herbicidal rating SETVI” value (SETVI (Foxtail, Green) [6]; rate 0.0313 kg/ha) was 0.0 and the “Preemergence herbicidal rating SETVI” value (SETVI (Foxtail, Green) [6]; rate 0.0625 kg/ha) was 0.0. For the same molecule, the “Preemergence herbicidal rating SETVI” value (SETVI (Foxtail, Green) [6]; rate 0.1250 kg/ha) was 0.0, the “Preemergence herbicidal rating SETVI” value (SETVI (Foxtail, Green) [6]; rate 0.2500 kg/ha) was 4.0 and the “Herbicidal rating GALAP” value (GALAP (Galium); rate 0.0158 kg/ha) was 0.0. For the same molecule, the “Herbicidal rating GALAP” value (GALAP (Galium); rate 0.0315 kg/ha) was 0.0, the “Herbicidal rating GALAP” value (GALAP (Galium); rate 0.0630 kg/ha) was 2.0 and the “ECHORC herbicidal effect rating” value ([7]; 0.0313 kg/ha) was 4.0. The “ECHORC herbicidal effect rating” value ([7]; 0.0625 kg/ha) was 4.0, the “ECHORC herbicidal effect rating” value ([7]; 0.1250 kg/ha) was 5.0 and the “ECHORC herbicidal effect rating” value ([7]; 0.2500 kg/ha) was 5.0. The “MOOVA herbicidal effect rating” value (MOOVA (Monochoria); 0.0313 kg/ha) was 7.0, the “MOOVA herbicidal effect rating” value (MOOVA (Monochoria); 0.0625 kg/ha) was 9.0 and the “MOOVA herbicidal effect rating” value (MOOVA (Monochoria); 0.1250 kg/ha) was 9.0. The “MOOVA herbicidal effect rating” value (MOOVA (Monochoria); 0.2500 kg/ha) was 9.0, the “Preemergence herbicidal rating IPOHE” value ([8]; rate 0.0156 kg/ha) was 0.0 and the “Preemergence herbicidal rating IPOHE” value ([8]; rate 0.0313 kg/ha) was 0.0. For the same molecule, the “Preemergence herbicidal rating IPOHE” value ([8]; rate 0.0625 kg/ha) was 0.0, the “Preemergence herbicidal rating IPOHE” value ([8]; rate 0.1250 kg/ha) was 2.0 and the “Preemergence herbicidal rating IPOHE” value ([8]; rate 0.2500 kg/ha) was 7.0. The “Herbicidal rating AMBEL” value (AMBEL (Ragweed, Common); rate 0.0158 kg/ha) was 1.0, the “Herbicidal rating AMBEL” value (AMBEL (Ragweed, Common); rate 0.0315 kg/ha) was 6.0 and the “Herbicidal rating AMBEL” value (AMBEL (Ragweed, Common); rate 0.0630 kg/ha) was 7.0. For the same molecule, the “Herbicidal rating ORYSAT” value (ORYSAT (Rice, Tebonnet); rate 0.0158 kg/ha) was 1.5, the “Herbicidal rating ORYSAT” value (ORYSAT (Rice, Tebonnet); rate 0.0315 kg/ha) was 2.0 and the “Herbicidal rating ORYSAT” value (ORYSAT (Rice, Tebonnet); rate 0.0630 kg/ha) was 2.5. For the same molecule, the “Herbicidal rating GLXMAW” value ([9]; rate 0.0158 kg/ha) was 5.0, the “Herbicidal rating GLXMAW” value ([9]; rate 0.0315 kg/ha) was 5.0 and the “Herbicidal rating GLXMAW” value ([9]; rate 0.0630 kg/ha) was 5.0.
